Reference: ChEMBL document CHEMBL1157196, “Structure-based discovery of a novel non-peptidic small molecular inhibitor of caspase-3” (Bioorg Med Chem, 2008)

Columns and labels:
[1] = molecular target: T1, Caspase-3 (Homo sapiens, UniProt P42574); test: Inhibition of human recombinant caspase 3 preincubated for 10 mins
T1 sequence (P42574 whole entry): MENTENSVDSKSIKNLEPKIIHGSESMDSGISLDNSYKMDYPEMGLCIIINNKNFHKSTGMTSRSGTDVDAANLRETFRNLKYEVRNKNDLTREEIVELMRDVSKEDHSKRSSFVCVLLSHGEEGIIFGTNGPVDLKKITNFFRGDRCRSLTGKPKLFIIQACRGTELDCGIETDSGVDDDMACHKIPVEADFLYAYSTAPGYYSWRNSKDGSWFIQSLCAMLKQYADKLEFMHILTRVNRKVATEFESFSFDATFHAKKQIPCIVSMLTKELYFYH

[2] = molecular target: T2, Caspase-7 (Homo sapiens, UniProt P55210); test: Inhibition of human recombinant caspase 7 preincubated for 10 mins
T2 sequence (P55210 whole entry): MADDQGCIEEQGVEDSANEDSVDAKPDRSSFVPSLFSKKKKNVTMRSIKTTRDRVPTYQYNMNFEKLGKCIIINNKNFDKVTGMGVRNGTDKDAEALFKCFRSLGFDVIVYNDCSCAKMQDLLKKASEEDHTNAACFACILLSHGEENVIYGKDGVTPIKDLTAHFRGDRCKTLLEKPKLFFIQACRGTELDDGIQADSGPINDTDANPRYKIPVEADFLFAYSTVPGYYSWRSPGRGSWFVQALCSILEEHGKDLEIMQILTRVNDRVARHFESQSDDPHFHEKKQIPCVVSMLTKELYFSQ

[3] = molecular target: Caspase-8 (Homo sapiens, UniProt Q14790); test: Inhibition of human recombinant caspase 8 preincubated for 10 mins
Chain of Caspase-8 (Q14790 217-374 limits assumed): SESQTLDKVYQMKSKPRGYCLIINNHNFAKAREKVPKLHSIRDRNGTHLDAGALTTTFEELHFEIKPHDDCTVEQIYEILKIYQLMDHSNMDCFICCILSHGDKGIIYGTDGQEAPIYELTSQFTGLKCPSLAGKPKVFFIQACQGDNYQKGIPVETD
Chain of Caspase-8 (Q14790 385-479 limits assumed): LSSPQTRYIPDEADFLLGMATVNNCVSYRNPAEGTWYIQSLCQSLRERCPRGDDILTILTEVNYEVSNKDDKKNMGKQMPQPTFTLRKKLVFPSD

[4] = molecular target: T3, Caspase-9 (Homo sapiens, UniProt P55211); test: Inhibition of human recombinant caspase 9 preincubated for 10 mins
T3 sequence (P55211 whole entry): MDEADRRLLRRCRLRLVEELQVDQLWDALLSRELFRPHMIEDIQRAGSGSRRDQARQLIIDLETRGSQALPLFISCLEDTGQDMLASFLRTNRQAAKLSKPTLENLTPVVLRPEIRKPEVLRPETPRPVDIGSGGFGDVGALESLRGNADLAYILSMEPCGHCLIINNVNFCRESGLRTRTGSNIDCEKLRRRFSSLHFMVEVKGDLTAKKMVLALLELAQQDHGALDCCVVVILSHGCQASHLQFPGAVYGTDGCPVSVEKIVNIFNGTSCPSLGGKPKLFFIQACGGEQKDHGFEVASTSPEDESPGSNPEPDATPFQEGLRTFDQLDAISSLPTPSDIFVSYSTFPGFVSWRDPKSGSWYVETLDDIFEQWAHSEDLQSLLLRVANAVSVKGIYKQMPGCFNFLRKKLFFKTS

- IC50 [1]: 13.6 µM
- IC50 [2]: 84.9 µM
- IC50 [3]: > 100 µM
- IC50 [4]: 93 µM
SMILES: CCOC(=O)COc1cc(C(=O)O)c(O)c2ccccc12
